Measurements taken from PMC12030059, “Mechanistic Advances in the Therapeutic Application of Bixin for Lung Inflammation In Vitro and In Vivo” (Pharmaceuticals, 2025).

What was measured:
Assay type in all cases: cell-based
[1] = tested on: RAW 264.7 macrophages; test: MTT cell viability assay; settings: 12.5 to 200 μM, 3 h of exposure
Experimental: RAW 264.7 cells were plated (5 × 10^4 cells/well) in a 96-well plate with DMEM and 10% FBS. When cells reached 90% confluence, the 10% (v/v) FBS DMEM was discarded and replaced with the stimuli. […] The metabolism of MTT by the cells was monitored by the formation of insoluble salts, which were then dissolved in isopropyl alcohol. Absorbance was read at 570 nm using a Varioskan LUX (ThermoFisher Scientific, Waltham, MA, USA). […] Cell viability was normalized in all groups by the control (1% (v/v) FBS DMEM), with 10% (v/v) FBS in DMEM used as the positive growth control.

[2] = tested on: RAW 264.7 cells; test: Wound healing migration assay; settings: 24 h, mitomycin C pretreated; for cell migration (wound closure), compound alone: 200 μM, no stimulus; for cell migration induced by CSE: CSE 5% plus compound
Experimental: RAW 264.7 cells were seeded in a 24-well plate (4.0 × 10^5 cells/well) and cultured until maximum confluence. Cells were then treated with mitomycin C (5 μg/mL) in FBS-free DMEM for 2 h, followed by washing with PBS. A linear scratch was made with a 200 μL pipette tip in each well. Cells were then stimulated for 24 h with the stimuli diluted in DMEM supplemented with 1% (v/v) FBS. Wound closure was monitored by capturing images at 0 and 24 h. The area of wound closure in each image was measured at five different points using a ruler tool, and an average was calculated for each image and condition. Cell migration was quantified as the percentage of wound closure at 24 h compared to the area at 0 h for each group.

[3] = tested on: F-actin in RAW 264.7 cells; test: F-actin polymerization assay; settings: 200 μM, alone and in the presence of 5% CSE
Experimental: RAW 264.7 cells were seeded in a 24-well plate (2.5 × 10^5 cells/well) and stimulated as previously described. After reaching 70% confluence, cells were blocked with 5% (w/v) BSA for 1 h and washed three times in PBS-Tween 20 (0.1% (v/v)). The supernatants were replaced with ActinRed (ThermoFisher Scientific, Waltham, MA, USA) for 30 min, followed by washing and incubation with DAPI for 5 min. After the final wash, DMEM FluoroBrite was added, and fluorescence was analyzed using the EVOS inverted microscope (ThermoFisher Scientific, Waltham, MA, USA).

[4] = tested on: p-p65 NF-κB in RAW 264.7 cells; test: Immunocytochemistry for p-p65 nuclear translocation; settings: for nuclear p-p65 (green fluorescence colocalized with DAPI), compound alone: 200 μM, no stimulus; for p-p65 NF-κB nuclear translocation in cells stimulated with CSE: 5% CSE then compound 200 μM
Experimental: RAW 264.7 cells were seeded in a 24-well plate (2.5 × 10^5 cells/well) and stimulated as previously described. After reaching 70% confluence, cells were blocked with 5% (w/v) BSA for 1 h, then washed three times in PBS-Tween 20 (0.1% (v/v)). The supernatants were replaced with a solution containing the primary antibody against p-p65 (#3033-rabbit-1:500) (Cell Signaling Technology, Danvers, MA, USA) diluted in PBS-T with 1% (w/v) BSA and incubated overnight. After incubation, cells were incubated for 1 h with a secondary antibody conjugated to Alexa Fluor-488 (1:1000; ThermoFisher Scientific, Waltham, MA, USA). Cells were then washed three times with PBS-T and incubated with DAPI for 5 min. After the final wash, DMEM FluoroBrite was added, and fluorescence was analyzed using the EVOS inverted microscope (ThermoFisher Scientific, Waltham, MA, USA). Images were captured at 20× magnification from at least 10 fields for each experimental condition, and fluorescence intensity was quantified.

[5] = tested on: HDAC6; test: Western blotting, HDAC6 expression; settings: RAW 264.7, increase by CSE 5%
Experimental: The RAW 264.7 macrophage cell lines were cultured in DMEM supplemented with 10% (v/v) FBS, pH 7.2, at 37 °C in a humidified atmosphere with 5% CO2. RAW 264.7 cells were plated in a 24-well plate (3.5 × 10^5 cells/well) in DMEM with 1% (v/v) FBS and left overnight to adhere. […] After incubation, the medium was removed, and a 100 μM solution of bixin or potassium bixinate (diluted in DMEM; bixin was first prepared as a stock solution in DMSO) was added for an additional 1 h.
Cells were lysed in RIPA buffer containing […]™ Protease Inhibitor and 1 mM sodium orthovanadate. Samples were then analyzed using the bicinchoninic acid (BCA) method (BCA Protein Assay Kit). […] For protein quantification, 10 μL of the sample was mixed with 100 μL of the working solution, and the same procedure was performed for each point on the standard curve in a 96-well plate. […] Absorbance was read at 565 nm using a Varioskan LUX spectrophotometer (ThermoFisher Scientific, Waltham, MA, USA).
(§1) Cell lysates (10–20 μg of protein) were separated by SDS-PAGE (sodium dodecyl sulfate polyacrylamide gel for electrophoresis) (8 or 12% polyacrylamide) and transferred (25 V, 1.0 A, 30 min—Trans-Blot Turbo Transfer System, Bio-Rad—São Paulo, Brazil) to a PVDF membrane. […] Densitometry was quantified using ImageJ software v. […] Results are expressed as densitometric values for each protein normalized to β-actin.

[6] = tested on: ICAM-1; test: Western blotting, ICAM-1 expression; settings: RAW 264.7, 200 μM following CSE 5% exposure
Experimental: (§2) The RAW 264.7 macrophage cell lines were cultured in DMEM supplemented with 10% (v/v) FBS, pH 7.2, at 37 °C in a humidified atmosphere with 5% CO2. RAW 264.7 cells were plated in a 24-well plate (3.5 × 10^5 cells/well) in DMEM with 1% (v/v) FBS and left overnight to adhere. […]
(§3) Cells were lysed in RIPA buffer containing […]™ Protease Inhibitor and 1 mM sodium orthovanadate. Samples were then analyzed using the bicinchoninic acid (BCA) method (BCA Protein Assay Kit). Standard curves with known albumin concentrations (0–2 mg/mL) were used. The working solution was prepared according to the manufacturer’s instructions. For protein quantification, 10 μL of the sample was mixed with 100 μL of the working solution, and the same procedure was performed for each point on the standard curve in a 96-well plate. […] Absorbance was read at 565 nm using a Varioskan LUX spectrophotometer (ThermoFisher Scientific, Waltham, MA, USA).
as §1

[7] = tested on: NOS2; test: Western blotting, NOS2 expression; settings: RAW 264.7, 200 μM, CSE 5%
Experimental: as §2, §3, §1

Compound | cell viability [1] | cell migration (wound closure), compound alone [2] | cell migration induced by CSE [2] | F-actin labeling (MFI) [3] | nuclear p-p65 (green fluorescence colocalized with DAPI), compound alone [4] | p-p65 NF-κB nuclear translocation in cells stimulated with CSE [4] | HDAC6 expression (HDAC6/β-actin) [5] | ICAM-1 expression (ICAM-1/β-actin) [6] | NOS2 expression (NOS2/β-actin) [7]
COC(=O)/C=C/C(C)=C\C=C\C(C)=C\C=C\C=C(C)\C=C\C=C(C)\C=C\C(=O)O [HBx, (2E,4E,6E,8E,10E,12E,14E,16Z,18E)-20-methoxy-4,8,13,17-tetramethyl-20-oxoicosa-2,4,6,8,10,12,14,16,18-nonaenoic acid] | did not affect cell viability | no migration occurred | completely inhibited | maintained F-actin at control levels | do not display a significant increase in green fluorescence intensity | prevent p-p65 NF-κB nuclear translocation | effective in reducing it | reduced ICAM-1 expression | reduced it
potassium bixinate [KBx] | did not affect cell viability | no migration occurred | completely inhibited | maintained F-actin at control levels | do not display a significant increase in green fluorescence intensity | prevent p-p65 NF-κB nuclear translocation | effective in reducing it | reduced ICAM-1 expression | reduced it
